{"source": "patent EP0407583A1", "about": "“DERIVATIVES OF DICHLOR[…] ACYLAMIDO[…] AND INSECTICIDAL, FU[…] HEMATOCIDAL PREPARATIONS BASED ON THEM” (priority 1989, dated 1990)", "key": {"Rhyzoctonia aderholdii [1]": {"tested_on": "Rhyzoctonia aderholdii", "assay": "Inhibition of phytopathogenic fungi, field test on affected potato plants", "assay_type": "in vivo", "details": "5 m^2 plots of affected potato plants sprayed", "text": "(§1) For field tests the plots of 5 m^2 in size with potato plants affected by Fusarium moniliforme, Venturia inaequalis, Rhyzoctonia violaceae, Botrytis cinereae, Verticillium albo-atrum, Diplodia zeae, Fusarium oxysporum, Rhoma betae, Rhyzoctonia aderholdii, Aspergillus niger, Alternaria sobani, Botrytis allii, Aspergillus fumigatis, Fusarium culmorum, Penicillium cyclopium were sprayed with the fungicide of the invention. To compare, the similar plots of the affected potato plants were aprayed with the known compositions indicated above."}, "Penicillium cyclopium [2]": {"tested_on": "Penicillium cyclopium", "assay": "Inhibition of phytopathogenic fungi, field test on affected potato plants", "assay_type": "in vivo", "details": "5 m^2 plots of affected potato plants sprayed", "text": "as §1"}, "Alternaria sobani [3]": {"tested_on": "Alternaria sobani", "assay": "Inhibition of phytopathogenic fungi, field test on affected potato plants", "assay_type": "in vivo", "details": "5 m^2 plots of affected potato plants sprayed", "text": "as §1"}, "Rhyzoctonia violaceae [4]": {"tested_on": "Rhyzoctonia violaceae", "assay": "Inhibition of phytopathogenic fungi, field test on affected potato plants", "assay_type": "in vivo", "details": "5 m^2 plots of affected potato plants sprayed", "text": "as §1"}, "Fusarium moniliforme [5]": {"tested_on": "Fusarium moniliforme", "assay": "Inhibition of phytopathogenic fungi, field test on affected potato plants", "assay_type": "in vivo", "details": "5 m^2 plots of affected potato plants sprayed", "text": "as §1"}, "Verticillium albo-atrum [6]": {"tested_on": "Verticillium albo-atrum", "assay": "Inhibition of phytopathogenic fungi, field test on affected potato plants", "assay_type": "in vivo", "details": "5 m^2 plots of affected potato plants sprayed", "text": "as §1"}, "Aspergillus niger [7]": {"tested_on": "Aspergillus niger", "assay": "Inhibition of phytopathogenic fungi, field test on affected potato plants", "assay_type": "in vivo", "details": "5 m^2 plots of affected potato plants sprayed", "text": "as §1"}, "Botrytis allii [8]": {"tested_on": "Botrytis allii", "assay": "Inhibition of phytopathogenic fungi, field test on affected potato plants", "assay_type": "in vivo", "details": "5 m^2 plots of affected potato plants sprayed", "text": "as §1"}, "Fusarium culmorum [9]": {"tested_on": "Fusarium culmorum", "assay": "Inhibition of phytopathogenic fungi, field test on affected potato plants", "assay_type": "in vivo", "details": "5 m^2 plots of affected potato plants sprayed", "text": "as §1"}, "Fusarium oxysporum [10]": {"tested_on": "Fusarium oxysporum", "assay": "Inhibition of phytopathogenic fungi, field test on affected potato plants", "assay_type": "in vivo", "details": "5 m^2 plots of affected potato plants sprayed", "text": "as §1"}, "Rhoma betae [11]": {"tested_on": "Rhoma betae", "assay": "Inhibition of phytopathogenic fungi, field test on affected potato plants", "assay_type": "in vivo", "details": "5 m^2 plots of affected potato plants sprayed", "text": "as §1"}, "Diplodia zeae [12]": {"tested_on": "Diplodia zeae", "assay": "Inhibition of phytopathogenic fungi, field test on affected potato plants", "assay_type": "in vivo", "details": "5 m^2 plots of affected potato plants sprayed", "text": "as §1"}, "Botrytis cinereae [13]": {"tested_on": "Botrytis cinereae", "assay": "Inhibition of phytopathogenic fungi, field test on affected potato plants", "assay_type": "in vivo", "details": "5 m^2 plots of affected potato plants sprayed", "text": "as §1"}, "Venturia inaequalis [14]": {"tested_on": "Venturia inaequalis", "assay": "Inhibition of phytopathogenic fungi, field test on affected potato plants", "assay_type": "in vivo", "details": "5 m^2 plots of affected potato plants sprayed", "text": "as §1"}, "Aspergillus fumigatis [15]": {"tested_on": "Aspergillus fumigatis", "assay": "Inhibition of phytopathogenic fungi, field test on affected potato plants", "assay_type": "in vivo", "details": "5 m^2 plots of affected potato plants sprayed", "text": "as §1"}, "Solubility (qualitative)": {"assay": "Solubility (qualitative)", "details": "water, alcohols, acetone"}, "Rhyzoctonia aderholdii [16]": {"tested_on": "Rhyzoctonia aderholdii", "assay": "Inhibition of phytopathogenic fungi growth, laboratory test on potato-dextrose agar", "assay_type": "cell-based", "details": "active principle 0.01 % by mass in potato-dextrose agar", "method": "(§2) A fungicidal composition based on this compound was prepared in the form of a 0.01% solution thereof in distilled water. A fungicidal action of the composition, according to the invention, was tested for inhibition of vegetative fungi growth such as Fusarium moniliforme, Ventura inaequalis, Rhyzoctonia ciolaceae, Botrytis cinereae, Verticillium albo-atrum, Diplodia zeae, Fusarium oxysporum, Rhoma betae, Rhyzoctonia aderholdii, Aspergillus niger, Alternaria sobani, Botrytis allii, Aspergillus fumigatis, Fusarium culmorum, Penicillium cyclopium affecting potato, sugar beet, cotton seeds either in laboratory or field conditions. For testing it to the Petri dishes containing potato-dextrose agar the composition of the invention was.added at the concentration of an active principle of 0.01 % by mass. The Petri dishes containing the same agar culture were inoculated with a mycelium of phytopathogenic fungi. For control dishes the phytopathogenic fungi were inoculated on agar without using the composition of the invention. A fungicidal effect of the composition, according to the invention was tested in comparison with the known fungicidal compositions based on 2,3-dichloro-1,4-naphthoquinone, zinc N,N'-ethylene-bis-dithiocarbamate and tetramethylthiuram disulphide."}, "Penicillium cyclopium [17]": {"tested_on": "Penicillium cyclopium", "assay": "Inhibition of phytopathogenic fungi growth, laboratory test on potato-dextrose agar", "assay_type": "cell-based", "details": "active principle 0.01 % by mass in potato-dextrose agar", "method": "as §2"}, "Alternaria sobani [18]": {"tested_on": "Alternaria sobani", "assay": "Inhibition of phytopathogenic fungi growth, laboratory test on potato-dextrose agar", "assay_type": "cell-based", "details": "active principle 0.01 % by mass in potato-dextrose agar", "method": "as §2"}, "Rhyzoctonia violaceae [19]": {"tested_on": "Rhyzoctonia violaceae", "assay": "Inhibition of phytopathogenic fungi growth, laboratory test on potato-dextrose agar", "assay_type": "cell-based", "details": "active principle 0.01 % by mass in potato-dextrose agar", "method": "as §2"}, "Fusarium moniliforme [20]": {"tested_on": "Fusarium moniliforme", "assay": "Inhibition of phytopathogenic fungi growth, laboratory test on potato-dextrose agar", "assay_type": "cell-based", "details": "active principle 0.01 % by mass in potato-dextrose agar", "method": "as §2"}, "Verticillium albo-atrum [21]": {"tested_on": "Verticillium albo-atrum", "assay": "Inhibition of phytopathogenic fungi growth, laboratory test on potato-dextrose agar", "assay_type": "cell-based", "details": "active principle 0.01 % by mass in potato-dextrose agar", "method": "as §2"}, "Aspergillus niger [22]": {"tested_on": "Aspergillus niger", "assay": "Inhibition of phytopathogenic fungi growth, laboratory test on potato-dextrose agar", "assay_type": "cell-based", "details": "active principle 0.01 % by mass in potato-dextrose agar", "method": "as §2"}, "Botrytis allii [23]": {"tested_on": "Botrytis allii", "assay": "Inhibition of phytopathogenic fungi growth, laboratory test on potato-dextrose agar", "assay_type": "cell-based", "details": "active principle 0.01 % by mass in potato-dextrose agar", "method": "as §2"}, "Fusarium culmorum [24]": {"tested_on": "Fusarium culmorum", "assay": "Inhibition of phytopathogenic fungi growth, laboratory test on potato-dextrose agar", "assay_type": "cell-based", "details": "active principle 0.01 % by mass in potato-dextrose agar", "method": "as §2"}, "Fusarium oxysporum [25]": {"tested_on": "Fusarium oxysporum", "assay": "Inhibition of phytopathogenic fungi growth, laboratory test on potato-dextrose agar", "assay_type": "cell-based", "details": "active principle 0.01 % by mass in potato-dextrose agar", "method": "as §2"}, "Rhoma betae [26]": {"tested_on": "Rhoma betae", "assay": "Inhibition of phytopathogenic fungi growth, laboratory test on potato-dextrose agar", "assay_type": "cell-based", "details": "active principle 0.01 % by mass in potato-dextrose agar", "method": "as §2"}, "Diplodia zeae [27]": {"tested_on": "Diplodia zeae", "assay": "Inhibition of phytopathogenic fungi growth, laboratory test on potato-dextrose agar", "assay_type": "cell-based", "details": "active principle 0.01 % by mass in potato-dextrose agar", "method": "as §2"}, "Botrytis cinereae [28]": {"tested_on": "Botrytis cinereae", "assay": "Inhibition of phytopathogenic fungi growth, laboratory test on potato-dextrose agar", "assay_type": "cell-based", "details": "active principle 0.01 % by mass in potato-dextrose agar", "method": "as §2"}, "Venturia inaequalis [29]": {"tested_on": "Venturia inaequalis", "assay": "Inhibition of phytopathogenic fungi growth, laboratory test on potato-dextrose agar", "assay_type": "cell-based", "details": "active principle 0.01 % by mass in potato-dextrose agar", "method": "as §2"}, "Aspergillus fumigatis [30]": {"tested_on": "Aspergillus fumigatis", "assay": "Inhibition of phytopathogenic fungi growth, laboratory test on potato-dextrose agar", "assay_type": "cell-based", "details": "active principle 0.01 % by mass in potato-dextrose agar", "method": "as §2"}}, "data": [{"smiles": "O=C(NP(=O)(Nc1ccc(Cl)cc1[N+](=O)[O-])Nc1ccc(Cl)cc1[N+](=O)[O-])c1ccc(Cl)cc1", "note": "[Example 14, para-chlorobenzoylamidophosphoric acid di-para-chloro--ortho-nitroanilide]", "values": [{"measurement": "Inhibition of growth of phytopathogenic fungi colonies, % Rhyzoctonia aderholdii test field", "setting": "Rhyzoctonia aderholdii [1]", "value": 100, "unit": "%"}, {"measurement": "Inhibition of growth of phytopathogenic fungi colonies, % Penicillium cyclopium Tests field", "setting": "Penicillium cyclopium [2]", "value": 71, "unit": "%"}, {"measurement": "Inhibition of growth of phytopathogenic fungi colonies, % Alternaria sobani test field", "setting": "Alternaria sobani [3]", "value": 93, "unit": "%"}, {"measurement": "Inhibition of growth of phytopathogenic fungi colonies, % Rhyzoctonia violaceae test field", "setting": "Rhyzoctonia violaceae [4]", "value": 34, "unit": "%"}, {"measurement": "Inhibition of growth of phytopathogenic fungi colonies, % Fusatium monili-forme test field", "setting": "Fusarium moniliforme [5]", "value": 55, "unit": "%"}, {"measurement": "Inhibition of growth of phytopathogenic fungi colonies, % Verticillium albo--atrum test field", "setting": "Verticillium albo-atrum [6]", "value": 39, "unit": "%"}, {"measurement": "Inhibition of growth of phytopathogenic fungi colonies, % Aspergillus niger test field", "setting": "Aspergillus niger [7]", "value": 5, "unit": "%"}, {"measurement": "Inhibition of growth of phytopathogenic fungi colonies, % Botrytis allii test field", "setting": "Botrytis allii [8]", "value": 98, "unit": "%"}, {"measurement": "Inhibition of growth of phytopathogenic fungi colonies, % Fusarium culmorum Tests field", "setting": "Fusarium culmorum [9]", "value": 100, "unit": "%"}, {"measurement": "Inhibition of growth of phytopathogenic fungi colonies, % Fusarium oxysporum test field", "setting": "Fusarium oxysporum [10]", "value": 48, "unit": "%"}, {"measurement": "Inhibition of growth of phytopathogenic fungi colonies, % Rhoma betae test field", "setting": "Rhoma betae [11]", "value": 67, "unit": "%"}, {"measurement": "Inhibition of growth of phytopathogenic fungi colonies, % Diplodia zeae test field", "setting": "Diplodia zeae [12]", "value": 100, "unit": "%"}, {"measurement": "Inhibition of growth of phytopathogenic fungi colonies, % Botrytis cinereae test field", "setting": "Botrytis cinereae [13]", "value": 0, "unit": "%"}, {"measurement": "Inhibition of growth of phytopathogenic fungi colonies, % Venturia inaequalis test field", "setting": "Venturia inaequalis [14]", "value": 49, "unit": "%"}, {"measurement": "Inhibition of growth of phytopathogenic fungi colonies, % Aspergillus fumigatis Tests field", "setting": "Aspergillus fumigatis [15]", "value": 93, "unit": "%"}, {"measurement": "solubility", "setting": "Solubility (qualitative)", "value": "soluble in water, alcohols, acetone"}, {"measurement": "Inhibition of growth of phytopathogenic fungi colonies, % Rhyzoctonia aderholdii test laboratory", "setting": "Rhyzoctonia aderholdii [16]", "value": 100, "unit": "%"}, {"measurement": "Inhibition of growth of phytopathogenic fungi colonies, % Penicillium cyclopium Tests laboratory", "setting": "Penicillium cyclopium [17]", "value": 79, "unit": "%"}, {"measurement": "Inhibition of growth of phytopathogenic fungi colonies, % Alternaria sobani test laboratory", "setting": "Alternaria sobani [18]", "value": 100, "unit": "%"}, {"measurement": "Inhibition of growth of phytopathogenic fungi colonies, % Rhyzoctonia violaceae test laboratory", "setting": "Rhyzoctonia violaceae [19]", "value": 35, "unit": "%"}, {"measurement": "Inhibition of growth of phytopathogenic fungi colonies, % Fusatium monili-forme test laboratory", "setting": "Fusarium moniliforme [20]", "value": 56, "unit": "%"}, {"measurement": "Inhibition of growth of phytopathogenic fungi colonies, % Verticillium albo--atrum test laboratory", "setting": "Verticillium albo-atrum [21]", "value": 40, "unit": "%"}, {"measurement": "Inhibition of growth of phytopathogenic fungi colonies, % Aspergillus niger test laboratory", "setting": "Aspergillus niger [22]", "value": 6, "unit": "%"}, {"measurement": "Inhibition of growth of phytopathogenic fungi colonies, % Botrytis allii test laboratory", "setting": "Botrytis allii [23]", "value": 100, "unit": "%"}, {"measurement": "Inhibition of growth of phytopathogenic fungi colonies, % Fusarium culmorum Tests laboratory", "setting": "Fusarium culmorum [24]", "value": 100, "unit": "%"}, {"measurement": "Inhibition of growth of phytopathogenic fungi colonies, % Fusarium oxysporum test laboratory", "setting": "Fusarium oxysporum [25]", "value": 50, "unit": "%"}, {"measurement": "Inhibition of growth of phytopathogenic fungi colonies, % Rhoma betae test laboratory", "setting": "Rhoma betae [26]", "value": 68, "unit": "%"}, {"measurement": "Inhibition of growth of phytopathogenic fungi colonies, % Diplodia zeae test laboratory", "setting": "Diplodia zeae [27]", "value": 100, "unit": "%"}, {"measurement": "Inhibition of growth of phytopathogenic fungi colonies, % Botrytis cinereae test laboratory", "setting": "Botrytis cinereae [28]", "value": 0, "unit": "%"}, {"measurement": "Inhibition of growth of phytopathogenic fungi colonies, % Venturia inaequalis test laboratory", "setting": "Venturia inaequalis [29]", "value": 50, "unit": "%"}, {"measurement": "Inhibition of growth of phytopathogenic fungi colonies, % Aspergillus fumigatis Tests laboratory", "setting": "Aspergillus fumigatis [30]", "value": 100, "unit": "%"}]}]}
